US7494784B2, “Method of treating cell-migration conditions or diseases” (Wisconsin Alumni Research Foundation, priority 2003, dated 2009)

Assays:
[1] = target: T1, GST-talin head (Homo sapiens, UniProt Q9Y490); assay: GST pull-down competition: displacement of His-β1-integrin tail from GST-talin head; format: binding; conditions: for binding affinity for talin compared with unphosphorylated peptide PN: binding assay between talin and integrin (FIG. 2); for binding affinity to talin of phosphorylated β1-integrin peptides: competing integrin tail binding from talin
T1 construct: Human talin1 head region (1-435) was cloned from HEK293T cells by PCR and subcloned into pET42; made in house; host or cells: E. coli BL21(DE3)
Procedure: Talin interactions were assessed by GST pull-down using recombinant GST-talin head, His-PIPKIγ635 C-terminus, His-PIPKIγ661 wild-type or Tyr to Phe mutant C-terminus, and His-β1-integrin tail. […] Peptides containing the PIPKIγ661/talin binding sequence (Di Paolo, et al. (2002) supra) were designed to include phosphorylated Tyr^644, phosphorylated Tyr^649, and dual phosphorylated Tyr^644 and Tyr^649.
In a screening assay to identify an agent which modulates the activity of PIPKIγ661 as defined by the binding interaction between PIPKIγ661 and talin, the step of detecting the activity of PIPKIγ661 is carried out by detecting and measuring the binding of PIPKIγ661 to talin. The detection and measurement of this binding interaction will be dependent on the type of screening assay performed and the labels used. Such screening assays to detect binding between two proteins in the presence of a test agent are well-known in the art. […] An exemplary binding assay of this type was conducted using PIPKIγ661 peptides of the sequence Cys-Asp-Glu-Arg-Scr-[…](peptide designated PN; SEQ ID NO:12) which are encompassed within the C-terminal 25 amino acid residues of PIPKIγ661 and interact with talin at the same site as integrin. […] Fluorescent probes may be linked to the cysteine residue using conventional thiol or thiolester linkages. […] In this assay, an agent which is an inhibitor of the interaction between PIPKIγ661 and talin blocks binding of a peptide of SEQ ID NO:12 and changes the fluorescent emission anisotropy as compared to a control (e.g., binding in the absence of the inhibitor).
(§1) Purified GST-talin head proteins were incubated with PIPKIγ661 tails or β1-integrin tail, together with Glutathione SEPHAROSE™ 4 Fast Flow (Amersham Biosciences, Piscataway, N.J.), in Buffer B (PBS, 0.2% NP-40, 2 mM DTT) at 4° C. for 4 hours. The beads were washed three times with Buffer B and analyzed by western blot. For competition assays, GST-talin head proteins were incubated with peptides or competing proteins for 2 hours, then the binding proteins were added and the mixtures were incubated for another 4 hours.

[2] = target: GST-talin Lys^357->Gln (Homo sapiens, UniProt Q9Y490, K357Q); conditions: peptide competing His-PIPKIγ661 binding
Source text: (§2) From structural studies of integrin binding to talin, a conserved tryptophan in β-integrin tail is positioned near two basic residues, Lys^357 and Arg^358 of talin F3 lobe (Garcia-Alvarez, et al. (2003) supra). […] The role of PIPKIγ661 phosphorylation was examined by using phosphorylated peptides to compete His-PIPKIγ661 binding to wild-type or mutant GST-talin. […] To further analyze this, β1-integrin peptides phosphorylated at Thr of Trp-Asp-Thr and at Tyr of Asn-Pro-Ile-Tyr (SEQ ID NO: 1) were synthesized and used to compete integrin tail binding from talin.
(§3) Human talin1 head region (1-435) was cloned from HEK293T cells by PCR and subcloned into pET42. The C-terminal truncated or site-directed mutagenesis for the PIPKIγ661 mutants or talin head was performed using PCR-primer overlap extension with mutagenic primers. PIPKIγ661 mutants were then subcloned into pcDNA3.1 and talin head mutants were subcloned into pET42. His-tagged mouse β1-integrin tail was made using well-established methods (Pfaff, et al. (1998) supra) and subcloned into pET28. The C-terminus of PIPKIγ635 (439-635), PIPKIγ661 (439-661), or the Tyr to Phe mutants of PIPKIγ661 were PCR amplified from the corresponding pcDNA3.1 constructs and subcloned into pET28. […] FAK, FAKTyr397Phe, kinase dead FAK and c-Src constructs were generated using well-known methods.
as §1

[3] = target: GST-talin Arg^358->Gln (Homo sapiens, UniProt Q9Y490, R358Q); conditions: peptide competing His-PIPKIγ661 binding
Source text: as §2, §3, §1

[4] = tested on: HEK293T cells; assay: Co-immunoprecipitation of talin with PIPKIγ661 from suspended HEK293T cells after stimulation; format: cell-based; conditions: stimulated
Procedure: The association between PIPKIγ661 and talin was also regulated by adhesion to type I collagen. […] However, in suspended cells, the PIPKIγ661 association with talin was restored when cells were stimulated with lysophosphatidic acid (LPA) or platelet-derived growth factor (PDGF).
Immunoprecipitation was performed using standard methods (Zhang, et al. (1997) J. Biol. Chem. 272:17756-17761). Briefly, transfected HEK293T cells were harvested and lysed in Buffer A (50 mM Tris-HCl, pH 7.5, 150 mM NaCl, 0.1-1.0% NP-40, 5.0 mM NaF, 2 mM Na3VO4, 4 mM Na2P2O7, 1 mM EDTA, 0.1 mM EGTA, 1 mM phenylmethyl sulphonyl fluoride (PMSF), 10% glycerol), centrifuged and incubated with protein A—Sepharose and 5 μg anti-HA, anti-c-Myc, anti-Flag, anti-PIPKIγ or anti-talin antibody as indicated at 4° C. for 4 hours to overnight. The immunocomplexes were washed with Buffer A, separated by SDS-polyacrylamide gel electrophoresis (SDS-PAGE), and analyzed as indicated. For the kinase assay, the immunocomplexes were washed and stored in kinase buffer.
Transfected HEK 293T cells were washed with phosphate-buffer saline (PBS) and detached with 0.25% trypsin at 37° C. The cells were harvested and washed with PBS, and suspended in serum-free DMEM at 37° C. for 1 hour. […]

[5] = tested on: Src family kinases; assay: Tyrosine phosphorylation of PIPKIγ661 in cells with Src-specific inhibitor; format: cell-based
Source text: In the FAK signaling pathway, Src family tyrosine kinases bind to and are activated by FAK, playing a fundamental role in focal adhesion organization (Parsons, et al. (2000) Oncogene 19:5606-5613; Cobb, et al (1994) Mol. Cell. Biol. 14:147-155; Schaller, et al. (1994) Mol. Cell. Biol. 14:1680-1688; Schaller, et al. (999) Mol. Cell. Biol. 10:3489-3505). To determine if Src family kinases phosphorylate PIPKIγ661, Src-specific inhibitor PP2 was employed. […] PIPKIγTyr^649->Phe is efficiently phosphorylated by c-Src.
HEK 293T cells and NRK cells were cultured in Dulbecco's modified Eagle's medium (DMEM) (Mediatech, Inc., Herndon, Va.) supplemented with 10% fetal bovine serum (INVITROGEN™, Carlsbad, Calif.) and antibiotics. NRK cells were transfected using FUGENE™ 6 (Roche, Indianapolis, Ind.) according to manufacturer's instructions for 24 hours. […]
Immunoprecipitation was performed using standard methods (Zhang, et al. (1997) J. Biol. Chem. 272:17756-17761). […] The immunocomplexes were washed with Buffer A, separated by SDS-polyacrylamide gel electrophoresis (SDS-PAGE), and analyzed as indicated. […]

T1 sequence (Q9Y490 1-435): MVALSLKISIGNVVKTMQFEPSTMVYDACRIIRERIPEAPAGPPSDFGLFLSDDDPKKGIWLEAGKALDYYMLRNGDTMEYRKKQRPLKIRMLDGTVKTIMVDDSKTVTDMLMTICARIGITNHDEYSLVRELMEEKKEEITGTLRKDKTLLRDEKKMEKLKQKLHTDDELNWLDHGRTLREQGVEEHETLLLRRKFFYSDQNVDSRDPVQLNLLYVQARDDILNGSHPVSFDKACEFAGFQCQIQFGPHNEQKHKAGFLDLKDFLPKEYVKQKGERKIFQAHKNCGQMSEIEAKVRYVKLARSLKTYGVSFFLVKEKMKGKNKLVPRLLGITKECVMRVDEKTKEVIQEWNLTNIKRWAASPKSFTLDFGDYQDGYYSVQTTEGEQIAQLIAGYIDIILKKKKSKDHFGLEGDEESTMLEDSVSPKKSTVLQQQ
Chain of GST-talin Arg^358->Gln (Q9Y490 1-435 R358Q): as the sequence (Q9Y490 1-435) above, with R358Q counted along it
Chain of GST-talin Lys^357->Gln (Q9Y490 1-435 K357Q): as the sequence (Q9Y490 1-435) above, with K357Q counted along it

Cys-Asp-Glu-Arg-Ser-Trp-Val-Tyr-Ser-Pro-leu-His-Tyr-Ser-Ala-Arg [PN]
displacement of His-β1-integrin from GST-talin ([1]; in vitro): poorly displaced

Cys-Asp-Glu-Arg-Ser-Trp-Val-Tyr-Ser-Pro-Leu-His-*Tyr-Ser-Ala-Arg [pY649]
affinity of binding to talin mutant Lys^357->Gln [2]: lower affinity | affinity of binding to talin mutant Arg^358->Gln [3]: loss of affinity | binding affinity for talin compared with unphosphorylated peptide PN [1]: higher binding affinity

Cys-Asp-Glu-Arg-Ser-Trp-Val-*Tyr-Ser-Pro-Leu-His-*Tyr-Ser-Ala-Arg [pY644/649]
binding affinity for talin compared with unphosphorylated peptide PN [1]: higher binding affinity

lysophosphatidic acid [LPA, reference compound]
PIPKIγ661 association with talin [4]: restored

Cys-As-Glu-Arg-Ser-Trp-Val-*Tyr-Ser-Pro-Leu-His-Tyr-Ser-Ala-Arg [pY644]
affinity of binding to talin mutant Lys^357->Gln [2]: retained high affinity binding | affinity of binding to talin mutant Arg^358->Gln [3]: loss of affinity | binding affinity for talin compared with unphosphorylated peptide PN [1]: higher binding affinity

Cys-Met-Asn-Ala-Lys-Trp-Asp-*T-Gly-Glu-Asn-Pro-Ile-Tyr-Lys-Ser-Ala [β1InpT]
binding affinity to talin of phosphorylated β1-integrin peptides [1]: did not increase binding affinity

Cys-Met-Asn-Ala-Lys-Tp-Asp-Thr-Gly-Glu-Asn-Pro-Ile-*Tyr-Lys-Ser-Ala [β1 InpY]
binding affinity to talin of phosphorylated β1-integrin peptides [1]: lower binding affinity

CC(C)(C)n1nc(-c2ccc(Cl)cc2)c2c(N)ncnc21 [PP2]
FAK-induced tyrosine phosphorylation of PIPKIγ661 ([5]; FAK-induced): dramatically inhibited | basal tyrosine phosphorylation of PIPKIγ661 ([5]; basal): dramatically inhibited

PDGF
PIPKIγ661 association with talin [4]: restored

B1: His-PIPKIγ661: recombinant His-tagged PIPKIγ661 wild-type C-terminus (439-661) (protein)
chain: MSSTVFRKSSSLKSSPSKKGRGALLAVKPLGPTAAFSASQIPSEREDVQYDLRGARSYPTLEDEGRPDLLPCTPPSFEEATTASIATTLSSTSLSIPERSPSDTSEQPRYRRRTQSSGQDGRPQEEPHAEDLQKITVQVEPVCGVGVVPKEEGAGVEVPPCGASAAASVEIDAASQASEPASQASDEEDAPSTDIYFPTDERSWVYSPLHYSARPASDGESDT
modifications: left off: small tags and cut ends
competition with His-β1-integrin for binding to GST-talin ([1]; recombinant C-terminus proteins): competed with His-β1-integrin for binding to GST-talin in a dose-dependent manner
